{
  "source": "patent US11135214B2",
  "about": "“Methods for enhancing the bio availability and exposure of a voltage-gated potassium channel opener” (priority 2018, dated 2021)",
  "experiment": "Food effect study, oral capsule, plasma PK in non-human primate",
  "format": "in vivo, Cynomolgus monkeys",
  "settings": "for AUC(0-inf): read-out: AUCinfobs",
  "description": "The following study was conducted to determine the effect of food when Compound A is orally administered to a non-human primate.\nThree (n=3) Cynomolgus monkeys of Vietnamese origin were used in this study. At the time of initial dose administration, the monkeys weighed 4.7 to 5.1 kg and were about 4.5 years of age.\nA certified primate diet (Teklad® Certified Diet 2050C) was fed during the study. For Group 1, the three monkeys were fasted overnight with food returned 4 hours post-dose. For Group 2, the same three monkeys were fasted overnight and offered food about 1 hour prior to dosing and food was returned at 4 hours post-dose. The following Table 1 gives the food consumption for Group 2:\nThe oral dosage units consisted of about 3 mg/kg of Compound A in a capsule. The capsules were filled the morning of the dose administration and kept at room temperature until dosing. The remaining capsules were placed into the −20° C. storage.\nThe capsules were placed as far back in the animal's mouth as possible using a pill gun or a modified gavage tube. Approximately 10 mL of water was administered via syringe to ensure complete delivery of the intended dose. Each animal received 1 capsule per dose. The same animals were dosed twice with a 96 hour washout period between doses.\nGroup 1: All animals were weighed the afternoon prior to dose administration. Animal #2 struggled with dosing. After several attempts, the animal was given a short break and finally dosed successfully.\nGroup 2: All animals were weighed the morning of dose administration. All animals were dosed without incident.\nWhole blood (˜2.0 mL) was collected using syringe and needle from cephalic or saphenous veins and transferred into vacutainer tubes containing K2EDTA and kept on wet ice until processed for plasma. Blood samples were collected at time of dosing (0.0 hours, time zero) and at 0.5, 1, 2, 4, 8, 12, 24 and 48 hours post-dose.\nThe whole blood samples were placed in a K2EDTA tube and centrifuged at 3200 RPM for 10 minutes at approximately 5° C. Plasma samples were divided into 2 aliquots and each aliquot directly transferred to appropriately labeled, individual tubes containing study number, collection time point, animal ID number, and sample description. One aliquot was placed into storage at −20±5° C. until shipment for analysis. The other aliquot was retained at −20±5° C. Red blood cells were disposed.\nAll samples were processed per standard protocol for bioanalytical analysis.",
  "key": {"[1]": {"settings": "cynomolgus monkey, plasma, po, 3 mg/kg, Group 2 (fed), 3 mg/kg capsule, Mean"}},
  "note": "Where “and” joins values, the source holds several entries; their conditions need not be identical. Identical values can stand only once. Like-named read-outs stand apart in the source and are kept apart here.",
  "data": [
    {"smiles": "Cc1cc(N2CCc3cc(F)ccc3C2)cc(C)c1NC(=O)CC(C)(C)C", "note": "[Compound A, N-[4-(6-fluoro-3,4-dihydro-1H-isoquinolin-2-yl)-2,6-dimethylphenyl]-3,3-dimethylbutanamide]", "values": [
      {"measurement": "Tmax", "setting": "Group 2 (fed), 3 mg/kg capsule, individual subjects, 3 mg/kg", "result": 4, "unit": "h"},
      {"measurement": "concentration at 0 h", "setting": "cynomolgus monkey, plasma, oral, 3 mg/kg, Group 1 (fasted), 3 mg/kg, 0 h, N=3, read-out: Mean plasma concentration", "result": 0, "unit": "ng/mL"},
      {"measurement": "concentration at 0.5 h", "setting": "cynomolgus monkey, plasma, oral, 3 mg/kg, Group 1 (fasted), 3 mg/kg, 0.5 h, N=3, read-out: Mean plasma concentration", "result": 0, "unit": "ng/mL"},
      {"measurement": "concentration at 1 h", "setting": "cynomolgus monkey, plasma, oral, 3 mg/kg, Group 1 (fasted), 3 mg/kg, 1 h, N=3, read-out: Mean plasma concentration", "result": 6.89, "unit": "ng/mL"},
      {"measurement": "concentration at 2 h", "setting": "cynomolgus monkey, plasma, oral, 3 mg/kg, Group 1 (fasted), 3 mg/kg, 2 h, N=3", "result": 15.3, "unit": "ng/mL"},
      {"measurement": "concentration at 4 h", "setting": "cynomolgus monkey, plasma, oral, 3 mg/kg, Group 1 (fasted), 3 mg/kg, 4 h, N=3, read-out: Mean plasma concentration", "result": 16.6, "unit": "ng/mL"},
      {"measurement": "concentration at 8 h", "setting": "cynomolgus monkey, plasma, oral, 3 mg/kg, Group 1 (fasted), 3 mg/kg, 8 h, N=3, read-out: Mean plasma concentration", "result": 49.9, "unit": "ng/mL"},
      {"measurement": "concentration at 12 h", "setting": "cynomolgus monkey, plasma, oral, 3 mg/kg, Group 1 (fasted), 3 mg/kg, 12 h, N=3, read-out: Mean plasma concentration", "result": 55.7, "unit": "ng/mL"},
      {"measurement": "concentration at 24 h", "setting": "cynomolgus monkey, plasma, oral, 3 mg/kg, Group 1 (fasted), 3 mg/kg, 24 h, N=3", "result": 42.5, "unit": "ng/mL"},
      {"measurement": "concentration at 48 h", "setting": "cynomolgus monkey, plasma, oral, 3 mg/kg, Group 1 (fasted), 3 mg/kg, 48 h, N=3", "result": 8.94, "unit": "ng/mL"},
      {"measurement": "concentration at 0 h", "setting": "cynomolgus monkey, plasma, oral, 3 mg/kg, Group 2 (fed), 3 mg/kg, 0 h, N=3, read-out: Mean plasma concentration", "result": 0, "unit": "ng/mL"},
      {"measurement": "concentration at 0.5 h", "setting": "cynomolgus monkey, plasma, oral, 3 mg/kg, Group 2 (fed), 3 mg/kg, 0.5 h, N=3, read-out: Mean plasma concentration", "result": 0.35, "unit": "ng/mL"},
      {"measurement": "concentration at 1 h", "setting": "cynomolgus monkey, plasma, oral, 3 mg/kg, Group 2 (fed), 3 mg/kg, 1 h, N=3, read-out: Mean plasma concentration", "result": 1.25, "unit": "ng/mL"},
      {"measurement": "concentration at 2 h", "setting": "cynomolgus monkey, plasma, oral, 3 mg/kg, Group 2 (fed), 3 mg/kg, 2 h, N=3", "result": 7.73, "unit": "ng/mL"},
      {"measurement": "concentration at 4 h", "setting": "cynomolgus monkey, plasma, oral, 3 mg/kg, Group 2 (fed), 3 mg/kg, 4 h, N=3, read-out: Mean plasma concentration", "result": 44.3, "unit": "ng/mL"},
      {"measurement": "concentration at 8 h", "setting": "cynomolgus monkey, plasma, oral, 3 mg/kg, Group 2 (fed), 3 mg/kg, 8 h, N=3, read-out: Mean plasma concentration", "result": 55.4, "unit": "ng/mL"},
      {"measurement": "concentration at 12 h", "setting": "cynomolgus monkey, plasma, oral, 3 mg/kg, Group 2 (fed), 3 mg/kg, 12 h, N=3, read-out: Mean plasma concentration", "result": 52.8, "unit": "ng/mL"},
      {"measurement": "concentration at 24 h", "setting": "cynomolgus monkey, plasma, oral, 3 mg/kg, Group 2 (fed), 3 mg/kg, 24 h, N=3", "result": 45, "unit": "ng/mL"},
      {"measurement": "concentration at 48 h", "setting": "cynomolgus monkey, plasma, oral, 3 mg/kg, Group 2 (fed), 3 mg/kg, 48 h, N=3", "result": 11.6, "unit": "ng/mL"},
      {"measurement": "concentration at 0 h", "setting": "cynomolgus monkey, plasma, oral, 3 mg/kg, fed, 3 mg/kg capsule, plasma, 0 h, individual animals, read-out: Concentration", "result": 0, "unit": "ng/mL"},
      {"measurement": "concentration at 1 h", "setting": "cynomolgus monkey, plasma, oral, 3 mg/kg, fed, 3 mg/kg capsule, plasma, 1 h, individual animals, read-out: Concentration", "result": 1.05, "unit": "ng/mL"},
      {"measurement": "concentration at 8 h", "setting": "cynomolgus monkey, plasma, oral, 3 mg/kg, fed, 3 mg/kg capsule, plasma, 8 h, individual animals, read-out: Concentration", "result": 50.4, "unit": "ng/mL"},
      {"measurement": "concentration at 12 h", "setting": "cynomolgus monkey, plasma, oral, 3 mg/kg, fed, 3 mg/kg capsule, plasma, 12 h, individual animals, read-out: Concentration", "result": 48.8, "unit": "ng/mL"},
      {"measurement": "AUC(0-inf)", "setting": "cynomolgus monkey, plasma, po, 3 mg/kg, Group 1 (fasted), 3 mg/kg capsule, individual subjects", "result": 913, "unit": "ng·h/mL"},
      {"measurement": "AUC(0-t)", "setting": "[1]", "result": 1640, "unit": "ng·h/mL"},
      {"measurement": "AUC(0-inf)", "setting": "[1]", "result": 1180, "unit": "ng·h/mL"},
      {"measurement": "concentration at 0 h", "setting": "cynomolgus monkey, plasma, po, 3 mg/kg, fasted, 3 mg/kg oral, plasma, 0 h, individual animals, read-out: Concentration", "result": 0, "unit": "ng/mL"},
      {"measurement": "concentration at 0.5 h", "setting": "cynomolgus monkey, plasma, po, 3 mg/kg, fasted, 3 mg/kg oral, plasma, 0.5 h, individual animals, read-out: Concentration", "result": 0, "unit": "ng/mL"},
      {"measurement": "concentration at 4 h", "setting": "cynomolgus monkey, plasma, po, 3 mg/kg, fasted, 3 mg/kg oral, plasma, 4 h, individual animals, read-out: Concentration", "result": 12.6, "unit": "ng/mL"},
      {"measurement": "concentration at 8 h", "setting": "cynomolgus monkey, plasma, po, 3 mg/kg, fasted, 3 mg/kg oral, plasma, 8 h, individual animals, read-out: Concentration", "result": 38.4, "unit": "ng/mL"},
      {"measurement": "concentration at 12 h", "setting": "cynomolgus monkey, plasma, po, 3 mg/kg, fasted, 3 mg/kg oral, plasma, 12 h, individual animals, read-out: Concentration", "result": 38.3, "unit": "ng/mL"},
      {"measurement": "Concentration", "setting": "fasted, 3 mg/kg oral, plasma, 0 h, individual animals", "result": 0, "unit": "ng/mL"},
      {"measurement": "Concentration", "setting": "fasted, 3 mg/kg oral, plasma, 0.5 h, individual animals", "result": 0, "unit": "ng/mL"},
      {"measurement": "Concentration", "setting": "fasted, 3 mg/kg oral, plasma, 1 h, individual animals, 3 mg/kg", "result": "15.6 ng/mL and 5.07 ng/mL and 0 ng/mL"},
      {"measurement": "Concentration", "setting": "fasted, 3 mg/kg oral, plasma, 2 h, individual animals, 3 mg/kg", "result": "6.00 ng/mL and 23.5 ng/mL and 16.4 ng/mL"},
      {"measurement": "Concentration", "setting": "fasted, 3 mg/kg oral, plasma, 4 h, individual animals, 3 mg/kg", "result": "19.2 ng/mL and 18.1 ng/mL"},
      {"measurement": "Concentration", "setting": "fasted, 3 mg/kg oral, plasma, 8 h, individual animals, 3 mg/kg", "result": "63.1 ng/mL and 48.1 ng/mL"},
      {"measurement": "Concentration", "setting": "fasted, 3 mg/kg oral, plasma, 12 h, individual animals, 3 mg/kg", "result": "75.1 ng/mL and 53.7 ng/mL"},
      {"measurement": "Concentration", "setting": "fasted, 3 mg/kg oral, plasma, 24 h, individual animals, 3 mg/kg", "result": "22.5 ng/mL and 53.2 ng/mL and 51.8 ng/mL"},
      {"measurement": "Concentration", "setting": "fasted, 3 mg/kg oral, plasma, 48 h, individual animals, 3 mg/kg", "result": "3.13 ng/mL and 12.5 ng/mL and 11.2 ng/mL"},
      {"measurement": "Concentration", "setting": "fed, 3 mg/kg capsule, plasma, 0 h, individual animals", "result": 0, "unit": "ng/mL"},
      {"measurement": "Concentration", "setting": "fed, 3 mg/kg capsule, plasma, 0.5 h, individual animals, 3 mg/kg", "result": "1.05 ng/mL and 0 ng/mL (2×)"},
      {"measurement": "Concentration", "setting": "fed, 3 mg/kg capsule, plasma, 1 h, individual animals, 3 mg/kg", "result": "1.21 ng/mL and 1.48 ng/mL"},
      {"measurement": "Concentration", "setting": "fed, 3 mg/kg capsule, plasma, 2 h, individual animals, 3 mg/kg", "result": "11.8 ng/mL and 0 ng/mL and 11.4 ng/mL"},
      {"measurement": "Concentration", "setting": "fed, 3 mg/kg capsule, plasma, 4 h, individual animals, 3 mg/kg", "result": "34.8 ng/mL and 19.9 ng/mL and 78.2 ng/mL"},
      {"measurement": "Concentration", "setting": "fed, 3 mg/kg capsule, plasma, 8 h, individual animals, 3 mg/kg", "result": "52.2 ng/mL and 63.7 ng/mL"},
      {"measurement": "Concentration", "setting": "fed, 3 mg/kg capsule, plasma, 12 h, individual animals, 3 mg/kg", "result": "67.5 ng/mL and 42.2 ng/mL"},
      {"measurement": "Concentration", "setting": "fed, 3 mg/kg capsule, plasma, 24 h, individual animals, 3 mg/kg", "result": "24.2 ng/mL and 61.9 ng/mL and 48.8 ng/mL"},
      {"measurement": "Concentration", "setting": "fed, 3 mg/kg capsule, plasma, 48 h, individual animals, 3 mg/kg", "result": "4.26 ng/mL and 16.9 ng/mL and 13.5 ng/mL"}
    ]}
  ]
}
